Measured values from US9939427B2, “Method for evaluating the scent performance of perfumes or perfume mixtures” (Symrise AG, priority 2013, dated 2018).
Entries after “also recorded” stand apart in the source; their conditions may differ.

How the values were obtained:
Type in all cases: cell-based
OR4X2 = target: T1, OR4X2 (Homo sapiens, UniProt Q8NGF9); experiment: Ca-imaging of OR4X2-transfected HEK293 cells; set-up: key to OR4X2 responded to odorant: ▪: 18 olfactory receptors responded to 32 odorants in related with specific anosmia; details: for Response of OR4X2 to odorant, in words: single odorants 200 μM; for Number of cell responses, Experiment (OR4X2): odorant 200 μM, approximately 2000 transfected cells in three times of measuring (Table 4, FIG. 5)
T1 construct: specific primers, which amplify the complete open reading frame; expressed in transfected cells; host or cells: HEK293
T1 sequence (Q8NGF9 1-303): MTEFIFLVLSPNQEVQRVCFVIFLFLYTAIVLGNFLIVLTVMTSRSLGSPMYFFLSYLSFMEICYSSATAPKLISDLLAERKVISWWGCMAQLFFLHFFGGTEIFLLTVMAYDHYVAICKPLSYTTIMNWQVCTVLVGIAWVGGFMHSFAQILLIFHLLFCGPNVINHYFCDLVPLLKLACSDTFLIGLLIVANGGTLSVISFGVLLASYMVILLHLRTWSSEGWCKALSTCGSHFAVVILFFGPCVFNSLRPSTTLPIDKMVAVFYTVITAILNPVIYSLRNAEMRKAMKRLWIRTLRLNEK
Protocol: (§1) HEK293 cells were cultivated in Petri dishes (Ø35 mm) as previously described (Benbernou et al. 2007). We grow up HEK293 cells in culture medium containing standard DMEM with 10% heat-inactivated fetal bovine serum, 2 mM L-glutamine, 100 units/ml penicillin, and 100 units/ml streptomycin in a humidified atmosphere (37° C., 5% CO2). After 2-3 days, the transfection process was carried out, whereby the cell culture was 70-80% confluent. The calciumphosphate method was applied to transfect DNA plasmid transiently in HEK293 cells in case of Ca-imaging method.
(§2) Calcium cations and phosphate anions created crystal precipitations coupled with DNA which could invade into the cells through endocytosis. Cells were transiently transfected with plasmid DNA which consists of pCI expression vector and PCR-amplified full-length cDNA of olfactory receptors candidates, and also Gα15, RTP1, Myr-Ric8A, HSC70, and m-Cherry as cofactors. The precipitation could be created after 15-20 min, with dropping the transfection solution on HEK293 cells. Before measuring by Ca-imaging cells were incubated 48-60 hours at 370 C, 5% CO2. Cationic liposome-mediated transfection method was applied to transfect DNA plasmid transiently in HANA3A cells in case of CRE-Luciferase and CRE-SEAP assays.
(§3) Calcium imaging of the transfected HEK293 cells was done by using chambers determinate an inverted microscope (Olympus; IX70) using a 10× objective (CPIanFL N Olympus). Fluorescence emission was determined every 4 s by using a CCD camera (Charge Coupled Device, C9100 Hamamatsu). The capillary tube which was responsible to supply odorants was generated closely above the cells. The columns filled with odorants, DMSO and ATP. Odorants were manually monitored to drop each 4-5 s to transfected cells. Solutions with drop wise form spread on HEK293 cells in 35 mm dishes.
(§4) In experiments, Fura-2 Acetoxymethylester (Fura-2/AM) was applied. The non-polar Fura2/AM is fluorescent but not yet calcium-sensitive. Once diffuses into cell plasma, Fura-2/AM is hydrolyzed to Fura-2 which is calcium-sensitive and functions as Ca2+ chelator. Regardless of the presence of calcium, Fura-2 emits at the wavelength of 510 nm. Once Fura-2 binds to free intracellular Ca2+ in cell plasma, its ratio of excitation at wavelengths of 340 nm and 380 nm is changed and correlated to the amount of intracellular Ca2+. According to this feature, the analysis of 340/380 nm excitation ratio for Fura-2 allows to quantify intracellular calcium levels.
(§5) In preparation for Ca-imaging measurements, transfected HEK293 cells were added 3 it Fura2/AM (3 μM) and incubated 30-45 min at 370 C, 5% CO2. After this step, experiments were carried out in a dark condition (Fura-2 is light-sensitive). After the incubation, medium of cell culture was replaced with 2 ml Ringer's solution.
(§6) Odorants were freshly prepared with DMSO as 1 M stocks solutions. Six mixtures (200 μM each chemical) were applied to cells sequentially (20 s each mixture/30 s Ringer). Those ORs tested with single odorants that had generated a response to odorant mixture group previously. Odorants were prepared in 100-200 μM concentration.
(§7) Ringer's solution was used for washing cells between measuring by two different odorants. Positive response was determined by the timing of the response, the strength of the response (more than twofold higher than the noise amplitude of the baseline), and the shape of the response curve (sharp rise in curve with gradual recovery). The typical shape of response curves was established by observing responses to repeated stimulation with 200 μM of odorants. After testing with single odorants at 100 μM, stimulating odorants were often retested at 200 μM concentrations. To confirm the result of every receptor that produced a significant response curves, the experiment was repeated for twelve times. Finally, cells were exposed to ATP (0.25 mM) which could activate P2Y receptor channel and induce Ca2+ influx into cells. […]

OR1B1 = target: T2, OR1B1 (Homo sapiens, UniProt Q8NGR6); experiment: Ca-imaging of OR1B1-transfected HEK293 cells; set-up: key to OR1B1 responded to odorant: ▪: 18 olfactory receptors responded to 32 odorants in related with specific anosmia; details: for Number of cell responses, Experiment (OR1B1): odorant 200 μM, approximately 2000 transfected cells in three times of measuring (Table 4, FIG. 5)
T2 construct: specific primers, which amplify the complete open reading frame; expressed in transfected cells; host or cells: HEK293
T2 sequence (Q8NGR6 1-317): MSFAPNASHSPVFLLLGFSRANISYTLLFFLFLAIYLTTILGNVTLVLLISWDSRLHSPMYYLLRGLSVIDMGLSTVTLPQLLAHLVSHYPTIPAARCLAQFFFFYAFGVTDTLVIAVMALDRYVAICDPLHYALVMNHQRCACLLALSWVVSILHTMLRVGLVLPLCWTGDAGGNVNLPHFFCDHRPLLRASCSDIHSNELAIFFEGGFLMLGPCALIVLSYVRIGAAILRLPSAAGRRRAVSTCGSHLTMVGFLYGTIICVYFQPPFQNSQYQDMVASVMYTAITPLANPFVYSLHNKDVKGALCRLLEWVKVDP
Protocol: as §1, §2, §3, §4, §5, §6, §7

[1] = system: HEK293 cells transfected with all cofactors and pCI plasmids without ORs; experiment: Ca-imaging of control HEK293 cells without OR; details: odorant 200 μM, three times of measuring (Table 4, FIG. 5)
Protocol: as §1, §2, §3, §4, §5, §6, §7

OR10A6 = target: T3, OR10A6 (Homo sapiens, UniProt Q8NH74); experiment: Ca-imaging of OR10A6-transfected HEK293 cells; set-up: key to OR10A6 responded to odorant: ▪: 18 olfactory receptors responded to 32 odorants in related with specific anosmia
T3 construct: specific primers, which amplify the complete open reading frame; expressed in transfected cells; host or cells: HEK293
T3 sequence (Q8NH74 1-314): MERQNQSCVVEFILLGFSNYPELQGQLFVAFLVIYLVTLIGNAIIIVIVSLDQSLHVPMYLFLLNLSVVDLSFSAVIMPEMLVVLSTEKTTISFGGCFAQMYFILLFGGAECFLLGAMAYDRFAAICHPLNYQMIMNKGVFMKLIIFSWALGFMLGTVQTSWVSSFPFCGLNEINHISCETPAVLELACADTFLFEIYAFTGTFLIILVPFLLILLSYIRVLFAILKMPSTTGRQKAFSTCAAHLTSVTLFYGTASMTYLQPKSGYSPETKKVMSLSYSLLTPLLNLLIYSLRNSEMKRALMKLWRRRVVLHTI
Protocol: as §1, §2, §3, §4, §5, §6
Ringer's solution was used for washing cells between measuring by two different odorants. Positive response was determined by the timing of the response, the strength of the response (more than twofold higher than the noise amplitude of the baseline), and the shape of the response curve (sharp rise in curve with gradual recovery). […]

OR8D2 = target: T4, OR8D2 (Homo sapiens, UniProt Q9GZM6); experiment: Ca-imaging of OR8D2-transfected HEK293 cells; set-up: key to OR8D2 responded to odorant: ▪: 18 olfactory receptors responded to 32 odorants in related with specific anosmia
T4 construct: specific primers, which amplify the complete open reading frame; expressed in transfected cells; host or cells: HEK293
T4 sequence (Q9GZM6 1-311): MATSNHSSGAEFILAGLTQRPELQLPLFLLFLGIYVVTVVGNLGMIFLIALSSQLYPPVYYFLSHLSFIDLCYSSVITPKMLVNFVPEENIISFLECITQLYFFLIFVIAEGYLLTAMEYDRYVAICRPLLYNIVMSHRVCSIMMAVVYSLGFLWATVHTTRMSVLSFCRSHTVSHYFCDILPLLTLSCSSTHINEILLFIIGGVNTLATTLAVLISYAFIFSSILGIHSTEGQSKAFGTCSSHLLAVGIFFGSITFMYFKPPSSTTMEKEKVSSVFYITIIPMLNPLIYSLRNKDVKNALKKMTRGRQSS
Protocol: as §1, §2, §3, §4, §5, §6, §7

OR8B4 = target: T5, OR8B4 (Homo sapiens, UniProt Q96RC9); experiment: Ca-imaging of OR8B4-transfected HEK293 cells; set-up: key to OR8B4 responded to odorant: ▪: 18 olfactory receptors responded to 32 odorants in related with specific anosmia; details: for OR8B4 responded to odorant / Response of OR8B4 to odorant, in words: Ca-imaging; for OR8B4 responded to odorant: HEK293 cells, individual odorant 200 μM, significant response p<0.05; for Response of OR8B4 to odorant, in words: single odorants 200 μM; for Number of cell responses (OR8B4): odorant 200 μM, approximately 2000 transfected cells in three times of measuring (FIG. 5)
T5 construct: specific primers, which amplify the complete open reading frame; expressed in transfected cells; host or cells: HEK293
T5 sequence (Q96RC9 1-309): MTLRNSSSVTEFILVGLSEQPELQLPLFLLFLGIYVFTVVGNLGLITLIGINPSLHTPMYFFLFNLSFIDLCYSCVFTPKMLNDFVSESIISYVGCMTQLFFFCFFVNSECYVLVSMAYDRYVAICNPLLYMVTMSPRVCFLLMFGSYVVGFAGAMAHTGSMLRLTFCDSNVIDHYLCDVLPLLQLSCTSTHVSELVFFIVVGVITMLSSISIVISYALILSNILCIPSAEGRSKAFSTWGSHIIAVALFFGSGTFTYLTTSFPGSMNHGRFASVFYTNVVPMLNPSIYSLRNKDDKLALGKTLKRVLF
Protocol: as §1, §2, §3, §4, §5, §6, §7

[2] = Ca-imaging, HEK293 cells, individual odorant 200 μM, significant response p<0.05
[3] = Ca-imaging, single odorants 200 μM

| Structure (SMILES) | Number of cell responses, Experiment (OR4X2) (OR4X2) | Number of cell responses, Control [1] | OR8B4 responded to odorant (OR8B4) | Response of OR8B4 to odorant, in words (OR8B4) | Number of cell responses (OR8B4) (OR8B4) | other results |
| --- | --- | --- | --- | --- | --- | --- |
| NCC(=O)c1ccccc1 [2-aminoacetophenon, 2-Aminoacetophenone] | 20 |  |  |  |  | OR4X2 responded to odorant (OR4X2; [2]): ▪; Response of OR4X2 to odorant, in words (OR4X2; Ca-imaging): could be the receptor; Response of OR4X2 to odorant, in words (OR4X2; Ca-imaging, listed as 2-aminoacetophenone): responded |
| Cc1occc(=O)c1O [3-Hydroxy-2-Methyl-4-Pyran, 3-Hydroxy-2-Methyl-4-Pyran-4-one] |  | 5 |  |  |  | OR1B1 responded to odorant (OR1B1; [2]): ▪; Response of OR1B1 to odorant, in words (OR1B1; [3]): significantly (P<0.05) activated; Number of cell responses, Experiment (OR1B1) (OR1B1; listed as 3-Hydroxy-2-methyl-4-pyranone): 35; Number of cell responses, Experiment (OR1B1) (OR1B1; listed as 3-hydroxy-2-methyl-4-pyrane): 9 |
| CCCCCCO [Alcohol C6] |  |  |  |  |  | OR10A6 responded to odorant (OR10A6; HEK293 cells, individual odorant 200 μM, significant response p<0.05): ▪; Response of OR10A6 to odorant, in words (OR10A6; single odorants 200 μM): elicited a response; also recorded: detected; OR8D2 responded to odorant (OR8D2; [2]): ▪; Response of OR8D2 to odorant, in words (OR8D2; [3]): elicited a response; also recorded: significantly activated; also recorded: detected; Number of cell responses, Experiment (OR8D2) (OR8D2; odorant 200 μM, approximately 2000 transfected cells in three times of measuring (Table 4, FIG. 5)): 9 |
| CCCCCC=O [Aldehyde C6, Aldehyd C6] | 8 | 0 | ▪ | responded significantly | 8 |  |
| COc1ccc(C=O)cc1 [Anisic aldehyde, Anisic Aldehyde] | 14 | 0 | ▪ | responded significantly | 14 |  |
